Here are results for one compound from EP0084757A1, “Trisubstituted diaza derivatives” (CIBA-GEIGY AG, priority 1982, dated 1983).

Molecules are shown by their SMILES. Values after ≈ are worked out from the molar mass of the structure shown.

In the test the test system is mit Crotonöl induzierten Rattenohroedems. Put plainly: Inhibition of croton oil-induced rat ear oedema (method of Tonelli and Thibault). As to conditions: inhibition of croton oil-induced ear oedema in the normal rat; local application. It is filed as in vivo, Normalratte. As for the experimental part: Diese Eigenschaft lässt sich beispielsweise nach der von G. Tonelli, L. Thibault, Endocrinology 77, 625 (1965) entwickelten Methode durch Hemmung des mit Crotonöl induzierten Rattenohroedems bei der Normalratte im Dosisbereich von etwa 1 bis etwa 100 mg/ml nachweisen.

The compound `COC(Cc1nc(-c2ccccc2)c(-c2cccnc2)[nH]1)OC` [2-[4(5)-Phenyl-5(4)-(3-pyridyl)-imidazol-2-yl]-acetaldehyd-dimethylacetal] yielded an ED50-Wert of 18 mg/mL (≈ 58.2 mM).
